Experiments:
[1] = test system: OPM-2 human multiple myeloma cell line; experiment: Cell Viability Assay (OPM-2 10 FBS); format: cell-based; settings: OPM-2 cells, 16 h, CellTiter-Glo
Description: Cell Viability Assay (OPM-2 10 FBS)
Cells were seeded into 384-well plates at 3000 cells/well density in complete growth medium containing 10% FBS, and incubated for 16 h with serially diluted test compounds in a 37° C. incubator with 5% CO2. Cell viability was tested using CellTiter-Glo® assay (Promega, Madison, WI) according to the manufacturer recommendations. Luminescence was determined using an EnVision® Multilabel plate reader 25 min after the addition of detection reagent. IC50 values were then calculated with Xlfit using a logistical 4-parameter fit model in GraphPad Prism (GraphPad Software, San Diego, CA) or in Genedata Screener® (Genedata, Basel, Switzerland).

[2] = target: T1, Mcl-1/Bim interaction, recombinant human Mcl-1 (171-327) (Homo sapiens, UniProt Q07820); experiment: Cell free Mcl-1: Bim Affinity Assay (Mcl-1 HTRF); format: binding; settings: TR-FRET, 0.1 nM Mcl-1 (171-327), 0.05 nM biotin-Bim (51-76)
T1 construct: made in house
How it was run: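 Compounds were mixed with the protein and a biotinylated Bim peptide spanning human residues 51-76. Plates were left overnight, then TR-FRET signal was measured. A four-parameter sigmoidal model applied to duplicate competition data gave IC50.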

T1 sequence (Q07820 171-327): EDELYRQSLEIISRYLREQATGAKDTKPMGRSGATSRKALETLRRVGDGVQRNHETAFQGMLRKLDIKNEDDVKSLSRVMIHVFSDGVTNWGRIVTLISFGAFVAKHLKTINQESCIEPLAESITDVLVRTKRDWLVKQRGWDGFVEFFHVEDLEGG

Structure (SMILES): CCN1[C@H](C)C/C=C\[C@H](O)[C@@H]2CC[C@H]2CN2C[C@@]3(CCCc4cc(Cl)ccc43)COc3ccc(cc32)C(=O)NS1(=O)=O (single isomer, unassigned) [Example 60]
- IC50 [1]: 2.69 µM
- IC50 [2]: 0.00408 µM

Structure (SMILES): COCCN1[C@@H](C)C/C=C\[C@H](O)[C@@H]2CC[C@H]2CN2C[C@@]3(CCCc4cc(Cl)ccc43)COc3ccc(cc32)C(=O)NS1(=O)=O (single isomer, unassigned) [Example 63]
- IC50 ([1]; Homo sapiens, OPM-2, 16 h): 0.81 µM
- IC50 [2]: 0.000728 µM

Structure (SMILES): COCCO[C@H]1/C=C\C[C@H](C)NS(=O)(=O)NC(=O)c2ccc3c(c2)N(C[C@@H]2CC[C@H]21)C[C@@]1(CCCc2cc(Cl)ccc21)CO3 (single isomer, unassigned) [Example 64]
- IC50 ([1]; Homo sapiens, OPM-2, 16 h): 0.399 µM
- IC50 [2]: 0.000678 µM

Structure (SMILES): COCCO[C@H]1/C=C\C[C@H](C)N(CCOC)S(=O)(=O)NC(=O)c2ccc3c(c2)N(C[C@@H]2CC[C@H]21)C[C@@]1(CCCc2cc(Cl)ccc21)CO3 (single isomer, unassigned) [Example 65]
- IC50 ([1]; Homo sapiens, OPM-2, 16 h): 1.17 µM
- IC50 [2]: 0.00238 µM

Structure (SMILES): COCCO[C@H]1/C=C/C[C@H](C)N(CCOC)S(=O)(=O)NC(=O)c2ccc3c(c2)N(C[C@@H]2CC[C@H]21)C[C@@]1(CCCc2cc(Cl)ccc21)CO3 (single isomer, unassigned) [Example 69]
- IC50 ([1]; Homo sapiens, OPM-2, 16 h): 0.276 µM
- IC50 [2]: 0.00053 µM

Structure (SMILES): COCCCN1[C@@H](C)C/C=C/[C@H](O)[C@@H]2CC[C@H]2CN2C[C@@]3(CCCc4cc(Cl)ccc43)COc3ccc(cc32)C(=O)NS1(=O)=O (single isomer, unassigned) [Example 72]
- IC50 ([1]; Homo sapiens, OPM-2, 16 h): 0.445 µM
- IC50 [2]: 0.000324 µM

Structure (SMILES): COCCCN1[C@@H](C)C/C=C\[C@H](O)[C@@H]2CC[C@H]2CN2C[C@@]3(CCCc4cc(Cl)ccc43)COc3ccc(cc32)C(=O)NS1(=O)=O (single isomer, unassigned) [Example 73]
- IC50 ([1]; Homo sapiens, OPM-2, 16 h): 1.66 µM
- IC50 [2]: 0.000728 µM

Structure (SMILES): COCCCO[C@H]1/C=C/C[C@H](C)NS(=O)(=O)NC(=O)c2ccc3c(c2)N(C[C@@H]2CC[C@H]21)C[C@@]1(CCCc2cc(Cl)ccc21)CO3 (single isomer, unassigned) [Example 74]
- IC50 ([1]; Homo sapiens, OPM-2, 16 h): 0.381 µM
- IC50 [2]: 0.00113 µM

Structure (SMILES): COCCCO[C@H]1/C=C/C[C@H](C)N(CCCOC)S(=O)(=O)NC(=O)c2ccc3c(c2)N(C[C@@H]2CC[C@H]21)C[C@@]1(CCCc2cc(Cl)ccc21)CO3 (single isomer, unassigned) [Example 75]
- IC50 ([1]; Homo sapiens, OPM-2, 16 h): 0.875 µM
- IC50 [2]: 0.00166 µM

Structure (SMILES): COc1ccc(CN2[C@@H](C)C/C=C/[C@H](O)[C@@H]3CC[C@H]3CN3C[C@@]4(CCCc5cc(Cl)ccc54)COc4ccc(cc43)C(=O)NS2(=O)=O)cc1 (single isomer, unassigned) [Example 80]
- IC50 ([1]; Homo sapiens, OPM-2, 16 h): 6.53 µM
- IC50 [2]: 0.00898 µM

Structure (SMILES): COc1ccc(CN2[C@@H](C)C/C=C\[C@H](O)[C@@H]3CC[C@H]3CN3C[C@@]4(CCCc5cc(Cl)ccc54)COc4ccc(cc43)C(=O)NS2(=O)=O)cc1 (single isomer, unassigned) [Example 81]
- IC50 ([1]; Homo sapiens, OPM-2, 16 h): 6.44 µM
- IC50 [2]: 0.0386 µM

Structure (SMILES): O=C1NS(=O)(=O)[C@H]2CC[C@@H]2C/C=C/[C@H](O)[C@@H]2CC[C@H]2CN2C[C@@]3(CCCc4cc(Cl)ccc43)COc3ccc1cc32 (single isomer, unassigned) [Example 90]
- IC50 ([1]; Homo sapiens, OPM-2, 16 h): 0.323 µM
- IC50 [2]: 0.00044 µM

Structure (SMILES): O=C1NS(=O)(=O)[C@H]2CCC[C@H](/C=C/[C@H](O)[C@@H]3CC[C@H]3CN3C[C@@]4(CCCc5cc(Cl)ccc54)COc4ccc1cc43)C2 (single isomer, unassigned) [Example 104]
- IC50 [1]: 13 µM
- IC50 [2]: 0.04 µM

Structure (SMILES): O=C1NS(=O)(=O)[C@@H]2CCC[C@@H](/C=C/[C@H](O)[C@@H]3CC[C@H]3CN3C[C@@]4(CCCc5cc(Cl)ccc54)COc4ccc1cc43)C2 (single isomer, unassigned) [Example 105]
- IC50 [1]: 0.33 µM
- IC50 [2]: 0.000589 µM

Structure (SMILES): O=C1NS(=O)(=O)[C@@H]2CCC[C@@H](CC[C@H](O)[C@@H]3CC[C@H]3CN3C[C@@]4(CCCc5cc(Cl)ccc54)COc4ccc1cc43)C2 (single isomer, unassigned) [Example 107]
- IC50 [1]: 17.3 µM
- IC50 [2]: 0.000597 µM

Structure (SMILES): CO[C@H]1/C=C/[C@@H]2CCC[C@H](C2)S(=O)(=O)NC(=O)c2ccc3c(c2)N(C[C@@H]2CC[C@H]21)C[C@@]1(CCCc2cc(Cl)ccc21)CO3 (single isomer, unassigned) [Example 108]
- IC50 [1]: 2.25 µM
- IC50 [2]: 0.00113 µM

Structure (SMILES): O=C1NS(=O)(=O)[C@@H]2CCC[C@H](/C=C/[C@H](O)[C@@H]3CC[C@H]3CN3C[C@@]4(CCCc5cc(Cl)ccc54)COc4ccc1cc43)C2 (single isomer, unassigned) [Example 109]
- IC50 [1]: 12.2 µM
- IC50 [2]: 0.00134 µM

Structure (SMILES): O=C1NS(=O)(=O)[C@H]2CCC[C@@H](/C=C/[C@H](O)[C@@H]3CC[C@H]3CN3C[C@@]4(CCCc5cc(Cl)ccc54)COc4ccc1cc43)C2 (single isomer, unassigned) [Example 110]
- IC50 [1]: 5.58 µM
- IC50 [2]: 0.00134 µM

Structure (SMILES): C[C@H]1[C@H]2/C=C/[C@H](O)[C@@H]3CC[C@H]3CN3C[C@@]4(CCCc5cc(Cl)ccc54)COc4ccc(cc43)C(=O)NS(=O)(=O)[C@H]1CCC2 (single isomer, unassigned) [Example 111]
- IC50 ([1]; Homo sapiens, OPM-2, 16 h): 17.8 µM
- IC50 [2]: 0.0307 µM

Structure (SMILES): CO[C@H]1/C=C/C(CO)C(C)CS(=O)(=O)NC(=O)c2ccc3c(c2)N(C[C@@H]2CC[C@H]21)C[C@@]1(CCCc2cc(Cl)ccc21)CO3 (single isomer, unassigned) [Example 126]
- IC50 [1]: 0.496 µM
- IC50 [2]: 0.000448 µM

Structure (SMILES): CO[C@H]1/C=C/[C@@H](CO)C[C@H](C)S(=O)(=O)NC(=O)c2ccc3c(c2)N(C[C@@H]2CC[C@H]21)C[C@@]1(CCCc2cc(Cl)ccc21)CO3 (single isomer, unassigned) [Example 127]
- IC50 [1]: 1.85 µM
- IC50 [2]: 0.000341 µM

Structure (SMILES): COC1C=CC(CO)CC(C)S(=O)(=O)NC(=O)c2ccc3c(c2)N(CC2CCC21)CC1(CCCc2cc(Cl)ccc21)CO3 (single isomer, unassigned) [Example 128]
- IC50 ([1]; Homo sapiens, OPM-2, 16 h): 2.52 µM
- IC50 [2]: 0.000603 µM

Structure (SMILES): C[C@@]12C/C=C/[C@H](O)[C@@H]3CC[C@H]3CN3C[C@@]4(CCCc5cc(Cl)ccc54)COc4ccc(cc43)C(=O)NS(=O)(=O)[C@H]1CCC2 (single isomer, unassigned) [Example 130]
- IC50 [1]: 0.229 µM
- IC50 [2]: 0.000386 µM

Structure (SMILES): C[C@@]12C/C=C/[C@H](O)[C@@H]3CC[C@H]3CN3C[C@@]4(CCCc5cc(Cl)ccc54)COc4ccc(cc43)C(=O)NS(=O)(=O)[C@H]1CCC2 (single isomer, unassigned) [Example 131]
- IC50 [1]: 1.82 µM
- IC50 [2]: 0.00183 µM

Structure (SMILES): CC12CC=CC(O)C3CCC3CN3CC4(CCCc5cc(Cl)ccc54)COc4ccc(cc43)C(=O)NS(=O)(=O)C1CCC2 (single isomer, unassigned) [Example 133]
- IC50 ([1]; Homo sapiens, OPM-2, 16 h): 2.75 µM
- IC50 [2]: 0.002 µM

Structure (SMILES): C[C@H]1C/C=C\[C@H](O)[C@@H]2CC[C@H]2CN2C[C@@]3(CCCc4cc(Cl)ccc43)COc3ccc(cc32)C(=O)NS(=O)(=O)[C@H]1C[C@H]1CCCO1 (single isomer, unassigned) [Example 136]
- IC50 ([1]; Homo sapiens, OPM-2, 16 h): 0.13 µM
- IC50 [2]: 0.000259 µM

Structure (SMILES): O=C1NS(=O)(=O)[C@H](C2CC2)CC/C=C/[C@H](O)[C@@H]2CC[C@H]2CN2C[C@@]3(CCCc4cc(Cl)ccc43)COc3ccc1cc32 (single isomer, unassigned) [Example 148]
- IC50 [1]: 0.459 µM
- IC50 [2]: 0.000285 µM

Structure (SMILES): O=C1NS(=O)(=O)[C@H](C2CC2)CC/C=C/[C@H](O)[C@@H]2CC[C@H]2CN2C[C@@]3(CCCc4cc(Cl)ccc43)COc3ccc1cc32 (single isomer, unassigned) [Example 149]
- IC50 [1]: 1.33 µM
- IC50 [2]: 0.00077 µM

Structure (SMILES): C[C@@H]1CC(=O)NC[C@@H]2CC[C@H]2CN2C[C@@]3(CCCc4cc(Cl)ccc43)COc3ccc(cc32)C(=O)NS(=O)(=O)[C@@H]1C (single isomer, unassigned) [Example 151]
- IC50 [1]: 9.17 µM
- IC50 [2]: 0.00357 µM

Structure (SMILES): CC1CC(=O)N(C)CC2CCC2CN2CC3(CCCc4cc(Cl)ccc43)COc3ccc(cc32)C(=O)NS(=O)(=O)C1C (single isomer, unassigned) [Example 152]
- IC50 ([1]; Homo sapiens, OPM-2, 16 h): 29.2 µM
- IC50 [2]: 0.0196 µM

Structure (SMILES): CC(C)(C)S(=O)(=O)CC[C@H]1CC/C=C/[C@H](O)[C@@H]2CC[C@H]2CN2C[C@@]3(CCCc4cc(Cl)ccc43)COc3ccc(cc32)C(=O)NS1(=O)=O (single isomer, unassigned) [Example 155]
- IC50 [1]: 11.6 µM
- IC50 [2]: 0.000846 µM

Structure (SMILES): CO[C@H]1/C=C/CC[C@@H](CCS(=O)(=O)C(C)(C)C)S(=O)(=O)NC(=O)c2ccc3c(c2)N(C[C@@H]2CC[C@H]21)C[C@@]1(CCCc2cc(Cl)ccc21)CO3 (single isomer, unassigned) [Example 156]
- IC50 [1]: 0.266 µM
- IC50 [2]: 0.000831 µM

Structure (SMILES): COC(=O)[C@@H]1CC/C=C/[C@H](O)[C@@H]2CC[C@H]2CN2C[C@@]3(CCCc4cc(Cl)ccc43)COc3ccc(cc32)C(=O)NS1(=O)=O (single isomer, unassigned) [Example 160]
- IC50 [1]: 5.29 µM
- IC50 [2]: 0.000397 µM

Structure (SMILES): COC(=O)CO[C@H]1/C=C/CC[C@@H](C2CC2)S(=O)(=O)NC(=O)c2ccc3c(c2)N(C[C@@H]2CC[C@H]21)C[C@@]1(CCCc2cc(Cl)ccc21)CO3 (single isomer, unassigned) [Example 161]
- IC50 [1]: 0.086 µM
- IC50 [2]: 0.00131 µM

Structure (SMILES): O=C1NS(=O)(=O)[C@@H](CCS(=O)(=O)Cc2ccccc2)CC/C=C/[C@H](O)[C@@H]2CC[C@H]2CN2C[C@@]3(CCCc4cc(Cl)ccc43)COc3ccc1cc32 (single isomer, unassigned) [Example 162]
- IC50 [1]: 8.4 µM
- IC50 [2]: 0.000978 µM
